Experimental data taken from PubChem BioAssay AID330 (DTP/NCI, 2004).
Values joined by “and” are separate entries in the source; they are usually repeats but may differ in a detail not shown here. Equal entries are not always repeated. Toxic doses and inconclusive results are not listed.

Tested on: P388 leukemia ip, CD2F1 mice, survival T/C
Assay: NCI In Vivo Anticancer Drug Screen. Data for tumor model P388 Leukemia (intraperitoneal) in CD2F1 (CDF1) mice
Conditions: endpoint: median survival time, higher = longer survival
Method in brief: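 Mice carrying the transplanted tumor received test compound or vehicle. Survival was recorded in each group, and the value is the treated-group measurement divided by that of the vehicle-treated control group.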

[1] = dose: 25.0 mg/kg/injection, schedule: Q01DX009 (ip), vehicle: saline with Tween-80
[2] = dose: 50.0 mg/kg/injection, schedule: Q01DX005 (ip), vehicle: Klucel (hydroxypropylcellulose) (HPC)
[3] = dose: 100.0 mg/kg/injection, schedule: Q01DX005 (ip), vehicle: Klucel (hydroxypropylcellulose) (HPC)
[4] = dose: 200.0 mg/kg/injection, schedule: Q01DX005 (ip), vehicle: Klucel (hydroxypropylcellulose) (HPC)

## CCCCCCCCCCCCCCCC(=O)OCC1OC(n2ccc(N)nc2=O)C(O)C1O (stereo not given)
dose: 0.29 mg/kg/injection, schedule: Q01DX009 (ip), vehicle: saline with Tween-80
  T/C: 104 % of control
dose: 0.44 mg/kg/injection, schedule: Q01DX009 (ip), vehicle: saline with Tween-80
  T/C: 104 % of control
dose: 0.66 mg/kg/injection, schedule: Q01DX009 (ip), vehicle: saline with Tween-80
  T/C: 122 % of control
dose: 0.88 mg/kg/injection, schedule: Q01DX009 (ip), vehicle: saline with Tween-80
  T/C: 152 % of control
dose: 1.32 mg/kg/injection, schedule: Q01DX009 (ip), vehicle: saline with Tween-80
  T/C: 166 % of control
dose: 2.0 mg/kg/injection, schedule: Q01DX009 (ip), vehicle: saline with Tween-80
  T/C: 185 % of control
dose: 3.0 mg/kg/injection, schedule: Q01DX009 (ip), vehicle: saline with Tween-80
  T/C: 200 % of control
dose: 3.13 mg/kg/injection, schedule: Q04DX003 (ip), vehicle: saline with Tween-80
  T/C: 163 % of control
dose: 6.25 mg/kg/injection, schedule: Q04DX003 (ip), vehicle: saline with Tween-80
  T/C: 181 % of control and 195 % of control
dose: 12.5 mg/kg/injection, schedule: Q04DX003 (ip), vehicle: saline sonified
  T/C: 204 % of control
dose: 12.5 mg/kg/injection, schedule: Q04DX003 (ip), vehicle: saline with Tween-80
  T/C: 218 % of control and 222 % of control
dose: 15.0 mg/kg/injection, schedule: Q01DX009 (ip), vehicle: saline with Tween-80
  T/C: 221 % of control and 345 % of control
dose: 20.0 mg/kg/injection, schedule: Q01DX001 (ip), vehicle: saline with Tween-80
  T/C: 154 % of control
dose: 20.0 mg/kg/injection, schedule: Q01DX009 (ip), vehicle: saline with Tween-80
  T/C: 228 % of control and 538 % of control and 548 % of control
dose: 24.0 mg/kg/injection, schedule: Q01DX009 (ip), vehicle: saline with Tween-80
  T/C: 344 % of control
[1]
  T/C: 170 % of control and 539 % of control
dose: 25.0 mg/kg/injection, schedule: Q04DX003 (ip), vehicle: saline sonified
  T/C: 250 % of control
dose: 25.0 mg/kg/injection, schedule: Q04DX003 (ip), vehicle: saline with Tween-80
  T/C: 254 % of control
dose: 31.75 mg/kg/injection, schedule: Q04DX002 (ip), vehicle: Klucel (hydroxypropylcellulose) (HPC)
  T/C: 250 % of control and 256 % of control
dose: 32.0 mg/kg/injection, schedule: Q04DX003 (ip), vehicle: saline with Tween-80
  T/C: 194 % of control and 264 % of control
dose: 37.5 mg/kg/injection, schedule: Q01DX001 (ip), vehicle: saline with Tween-80
  T/C: 181 % of control
dose: 40.0 mg/kg/injection, schedule: Q01DX001 (ip), vehicle: saline with Tween-80
  T/C: 204 % of control
dose: 48.0 mg/kg/injection, schedule: Q04DX003 (ip), vehicle: saline with Tween-80
  T/C: 216 % of control and 350 % of control
dose: 50.0 mg/kg/injection, schedule: Q01DX001 (ip), vehicle: Klucel (hydroxypropylcellulose) (HPC)
  T/C: 155 % of control
dose: 50.0 mg/kg/injection, schedule: Q04DX003 (ip), vehicle: saline sonified
  T/C: 250 % of control
dose: 60.0 mg/kg/injection, schedule: Q03DX003 (ip), vehicle: saline with Tween-80
  T/C: 536 % of control
dose: 62.5 mg/kg/injection, schedule: Q04DX002 (ip), vehicle: Klucel (hydroxypropylcellulose) (HPC)
  T/C: 263 % of control and 275 % of control
dose: 70.0 mg/kg/injection, schedule: Q03DX003 (ip), vehicle: saline with Tween-80
  T/C: 536 % of control
dose: 72.0 mg/kg/injection, schedule: Q04DX003 (ip), vehicle: saline with Tween-80
  T/C: 213 % of control and 511 % of control
dose: 75.0 mg/kg/injection, schedule: Q01DX001 (ip), vehicle: saline with Tween-80
  T/C: 181 % of control
dose: 80.0 mg/kg/injection, schedule: Q03DX003 (ip), vehicle: saline with Tween-80
  T/C: 459 % of control
dose: 90.0 mg/kg/injection, schedule: Q03DX003 (ip), vehicle: saline with Tween-80
  T/C: 378 % of control
dose: 125.0 mg/kg/injection, schedule: Q04DX002 (ip), vehicle: Klucel (hydroxypropylcellulose) (HPC)
  T/C: 263 % of control and 275 % of control

## CSc1ccc(NC(=O)ON2C(=O)c3ccccc3C2=O)cc1
dose: 6.25 mg/kg/injection, schedule: Q01DX009 (ip), vehicle: saline with Tween-80
  T/C: 119 % of control
dose: 12.5 mg/kg/injection, schedule: Q01DX009 (ip), vehicle: saline with Tween-80
  T/C: 110 % of control
[1]
  T/C: 112 % of control
dose: 50.0 mg/kg/injection, schedule: Q01DX009 (ip), vehicle: saline with Tween-80
  T/C: 119 % of control

## COc1cccc(/C=C\C(=O)c2ccccc(=O)c2O)c1OC
dose: 25.0 mg/kg/injection, schedule: Q01DX005 (ip), vehicle: Klucel (hydroxypropylcellulose) (HPC)
  T/C: 106 % of control
[2]
  T/C: 101 % of control
[3]
  T/C: 114 % of control
[4]
  T/C: 107 % of control

## C=C(F)F
[2]
  T/C: 95 % of control
[3]
  T/C: 101 % of control
[4]
  T/C: 103 % of control

## C/C(N=NC(=S)N1CCCCCC1)=C1\C=CC=CN1O
dose: 50.0 mg/kg/injection, schedule: Q01DX005 (ip), vehicle: saline with Tween-80
  T/C: 106 % of control
dose: 100.0 mg/kg/injection, schedule: Q01DX005 (ip), vehicle: saline with Tween-80
  T/C: 108 % of control
dose: 200.0 mg/kg/injection, schedule: Q01DX005 (ip), vehicle: saline with Tween-80
  T/C: 110 % of control

## CCOC(=O)c1cnc2cc3c(cc2c1Nc1ccccc1)OCO3
dose: 60.0 mg/kg/injection, schedule: Q01DX005 (ip), vehicle: Klucel (hydroxypropylcellulose) (HPC)
  T/C: 94 % of control
dose: 120.0 mg/kg/injection, schedule: Q01DX005 (ip), vehicle: Klucel (hydroxypropylcellulose) (HPC)
  T/C: 99 % of control
dose: 240.0 mg/kg/injection, schedule: Q01DX005 (ip), vehicle: Klucel (hydroxypropylcellulose) (HPC)
  T/C: 95 % of control

## COC(=O)C(C)NC(=O)Cc1ccccc1 (stereo not given)
dose: 100.0 mg/kg/injection, schedule: Q04DX003 (ip), vehicle: saline with Tween-80
  T/C: 104 % of control
dose: 200.0 mg/kg/injection, schedule: Q04DX003 (ip), vehicle: saline with Tween-80
  T/C: 100 % of control
dose: 400.0 mg/kg/injection, schedule: Q04DX003 (ip), vehicle: saline with Tween-80
  T/C: 90 % of control

## Cn1c(=O)oc2cc(NC(N)=O)c(Cl)cc21
[2]
  T/C: 94 % of control
[3]
  T/C: 90 % of control
[4]
  T/C: 86 % of control

## COc1ccc(/C=C/C(=O)CCC(=O)O)cc1OC
dose: 50.0 mg/kg/injection, schedule: Q01DX009 (ip), vehicle: Klucel (hydroxypropylcellulose) (HPC)
  T/C: 100 % of control and 109 % of control
dose: 50.0 mg/kg/injection, schedule: Q01DX009 (ip), vehicle: saline
  T/C: 114 % of control
dose: 100.0 mg/kg/injection, schedule: Q01DX009 (ip), vehicle: Klucel (hydroxypropylcellulose) (HPC)
  T/C: 108 % of control and 109 % of control
dose: 200.0 mg/kg/injection, schedule: Q01DX009 (ip), vehicle: Klucel (hydroxypropylcellulose) (HPC)
  T/C: 106 % of control and 110 % of control

## NC1C[S][Sn]2([O]C1=O)[O]C(=O)C(N)C[S]2 (stereo not given)
[2]
  T/C: 99 % of control
[3]
  T/C: 100 % of control
[4]
  T/C: 100 % of control

## O=C1Cn2c(cc(=O)c3ccccc32)O1
dose: 25.0 mg/kg/injection, schedule: Q01DX001 (ip), vehicle: saline with Tween-80
  T/C: 109 % of control
dose: 50.0 mg/kg/injection, schedule: Q01DX001 (ip), vehicle: saline with Tween-80
  T/C: 116 % of control
dose: 100.0 mg/kg/injection, schedule: Q01DX001 (ip), vehicle: saline with Tween-80
  T/C: 116 % of control

## CN(C)P1(=O)OCC(C)(C)CN1c1ccccc1 (stereo not given)
dose: 100.0 mg/kg/injection, schedule: Q04DX002 (ip), vehicle: saline
  T/C: 96 % of control
dose: 200.0 mg/kg/injection, schedule: Q04DX002 (ip), vehicle: saline
  T/C: 95 % of control
dose: 400.0 mg/kg/injection, schedule: Q04DX002 (ip), vehicle: saline
  T/C: 100 % of control

## CCN(CC)C1(C(F)C(F)(F)F)OCC2(CO1)COC(C(F)C(F)(F)F)(N(CC)CC)OC2 (stereo not given)
dose: 60.0 mg/kg/injection, schedule: Q01DX005 (ip), vehicle: saline with Tween-80
  T/C: 98 % of control
dose: 120.0 mg/kg/injection, schedule: Q01DX005 (ip), vehicle: saline with Tween-80
  T/C: 104 % of control
dose: 240.0 mg/kg/injection, schedule: Q01DX005 (ip), vehicle: saline with Tween-80
  T/C: 91 % of control

## COc1cc2c(cc1OC)C(Cc1ccc(OC)c(Oc3ccc(CC4c5cc(OC)c(OC)c(O)c5CCN4C)cc3)c1)N(C)CC2 (stereo not given)
dose: 20.0 mg/kg/injection, schedule: Q01DX009 (ip), vehicle: Klucel (hydroxypropylcellulose) (HPC)
  T/C: 106 % of control
dose: 40.0 mg/kg/injection, schedule: Q01DX009 (ip), vehicle: Klucel (hydroxypropylcellulose) (HPC)
  T/C: 107 % of control
dose: 80.0 mg/kg/injection, schedule: Q01DX009 (ip), vehicle: Klucel (hydroxypropylcellulose) (HPC)
  T/C: 111 % of control

## COc1ccc2c(c1OC)C[N+]1(C)CCc3cc4c(cc3C1=C2)OCO4 (stereo not given)
dose: 0.63 mg/kg/injection, schedule: Q01DX009 (ip), vehicle: water
  T/C: 114 % of control
dose: 1.25 mg/kg/injection, schedule: Q01DX009 (ip), vehicle: water
  T/C: 108 % of control
dose: 2.5 mg/kg/injection, schedule: Q01DX009 (ip), vehicle: water
  T/C: 100 % of control
dose: 5.0 mg/kg/injection, schedule: Q01DX009 (ip), vehicle: water
  T/C: 101 % of control
dose: 10.0 mg/kg/injection, schedule: Q01DX009 (ip), vehicle: water
  T/C: 110 % of control
